Measured values reported in patent US11447466B2, “Substituted indole compounds useful as inhibitors of TLR7/8/9” (BRISTOL-MYERS SQUIBB COMPANY, priority 2017, dated 2022).
pIC50: −log10 of the molar value.

Legend:
Format in all cases: cell-based
human TLR9 = target: T1, human TLR9 (Homo sapiens, UniProt Q9NR96); assay: TLR9 inhibition reporter assay (HEK-Blue SEAP reporter, ODN2006 stimulation); settings: HEK-Blue cells overexpressing human TLR9, SEAP reporter, ODN2006 5 nM, 22 hour incubation
T1 construct: host or cells: HEK-Blue cells
T1 sequence (Q9NR96 26-1032): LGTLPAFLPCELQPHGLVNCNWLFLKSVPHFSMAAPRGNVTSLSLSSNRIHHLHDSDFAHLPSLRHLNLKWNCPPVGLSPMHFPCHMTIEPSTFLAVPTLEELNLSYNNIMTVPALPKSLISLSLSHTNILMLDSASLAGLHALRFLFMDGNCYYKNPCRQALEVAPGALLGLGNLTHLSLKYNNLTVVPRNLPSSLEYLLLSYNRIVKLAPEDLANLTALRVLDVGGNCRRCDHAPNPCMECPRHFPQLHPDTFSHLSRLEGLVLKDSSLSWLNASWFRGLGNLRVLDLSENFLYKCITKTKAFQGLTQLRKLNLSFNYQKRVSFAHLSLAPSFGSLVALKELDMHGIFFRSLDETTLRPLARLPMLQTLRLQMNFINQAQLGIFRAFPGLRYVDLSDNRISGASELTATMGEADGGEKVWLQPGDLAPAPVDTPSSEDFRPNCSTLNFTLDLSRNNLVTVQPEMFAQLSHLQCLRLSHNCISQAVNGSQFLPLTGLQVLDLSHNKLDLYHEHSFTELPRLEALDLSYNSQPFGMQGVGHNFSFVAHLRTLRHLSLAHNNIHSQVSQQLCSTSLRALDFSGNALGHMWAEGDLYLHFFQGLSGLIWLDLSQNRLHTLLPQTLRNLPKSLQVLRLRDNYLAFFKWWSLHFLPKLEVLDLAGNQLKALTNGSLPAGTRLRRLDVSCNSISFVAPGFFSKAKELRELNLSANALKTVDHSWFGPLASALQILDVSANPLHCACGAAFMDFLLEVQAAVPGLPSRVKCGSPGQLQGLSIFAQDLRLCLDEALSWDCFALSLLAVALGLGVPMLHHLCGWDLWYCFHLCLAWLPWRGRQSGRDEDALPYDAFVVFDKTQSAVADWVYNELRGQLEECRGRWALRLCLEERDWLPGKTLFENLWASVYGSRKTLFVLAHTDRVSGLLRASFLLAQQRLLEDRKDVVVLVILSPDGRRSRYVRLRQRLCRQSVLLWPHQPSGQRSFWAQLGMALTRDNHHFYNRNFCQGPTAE
Outline: (§1)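 HEK-Blue cells overexpressing human TLR7, TLR8 or TLR9 carry a SEAP reporter driven by NF-κB/AP-1 sites. Compounds (0.05 nM–50 μM) were preincubated 30 min at room temperature, then cells were stimulated with gardiquimod 7.5 μM (TLR7), R848 15.9 μM (TLR8) or ODN2006 5 nM (TLR9) for 22 h at 37 °C.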

human TLR8 = target: T2, human TLR8 (Homo sapiens, UniProt Q9NR97); assay: TLR8 inhibition reporter assay (HEK-Blue SEAP reporter, R848 stimulation); settings: HEK-Blue cells overexpressing human TLR8, SEAP reporter, R848 15.9 μM, 22 hour incubation
T2 construct: host or cells: HEK-Blue cells
T2 sequence (Q9NR97 27-1041): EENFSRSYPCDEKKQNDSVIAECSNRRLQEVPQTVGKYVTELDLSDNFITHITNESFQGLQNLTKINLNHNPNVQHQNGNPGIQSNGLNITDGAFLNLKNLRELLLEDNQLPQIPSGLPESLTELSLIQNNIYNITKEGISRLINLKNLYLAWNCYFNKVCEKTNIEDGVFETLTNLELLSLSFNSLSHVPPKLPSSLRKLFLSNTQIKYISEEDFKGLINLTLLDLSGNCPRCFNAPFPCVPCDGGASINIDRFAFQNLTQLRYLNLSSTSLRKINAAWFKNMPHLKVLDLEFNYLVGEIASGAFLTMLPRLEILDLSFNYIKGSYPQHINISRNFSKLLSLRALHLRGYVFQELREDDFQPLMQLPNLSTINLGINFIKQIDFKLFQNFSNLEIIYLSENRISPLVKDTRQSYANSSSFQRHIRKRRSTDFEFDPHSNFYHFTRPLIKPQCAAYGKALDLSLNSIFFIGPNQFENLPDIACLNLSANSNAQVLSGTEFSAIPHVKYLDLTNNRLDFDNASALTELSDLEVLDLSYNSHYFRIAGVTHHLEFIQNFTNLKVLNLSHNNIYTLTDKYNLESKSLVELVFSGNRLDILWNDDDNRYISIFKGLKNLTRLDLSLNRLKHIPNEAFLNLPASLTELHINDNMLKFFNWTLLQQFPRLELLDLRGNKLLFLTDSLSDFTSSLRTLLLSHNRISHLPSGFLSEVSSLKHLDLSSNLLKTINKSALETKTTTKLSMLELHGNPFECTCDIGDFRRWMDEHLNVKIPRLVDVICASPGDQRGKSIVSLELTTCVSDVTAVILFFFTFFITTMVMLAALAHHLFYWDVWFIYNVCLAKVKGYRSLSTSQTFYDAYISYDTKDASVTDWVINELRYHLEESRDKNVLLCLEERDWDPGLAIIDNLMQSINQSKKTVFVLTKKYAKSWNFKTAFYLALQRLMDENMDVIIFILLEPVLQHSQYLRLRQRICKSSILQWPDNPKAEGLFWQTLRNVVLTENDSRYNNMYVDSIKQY
Outline: as §1

human TLR7 = target: T3, human TLR7 (Homo sapiens, UniProt Q9NYK1); assay: TLR7 inhibition reporter assay (HEK-Blue SEAP reporter, gardiquimod stimulation); settings: HEK-Blue cells overexpressing human TLR7, SEAP reporter, gardiquimod 7.5 μM, 22 hour incubation
T3 construct: host or cells: HEK-Blue cells
T3 sequence (Q9NYK1 27-1049): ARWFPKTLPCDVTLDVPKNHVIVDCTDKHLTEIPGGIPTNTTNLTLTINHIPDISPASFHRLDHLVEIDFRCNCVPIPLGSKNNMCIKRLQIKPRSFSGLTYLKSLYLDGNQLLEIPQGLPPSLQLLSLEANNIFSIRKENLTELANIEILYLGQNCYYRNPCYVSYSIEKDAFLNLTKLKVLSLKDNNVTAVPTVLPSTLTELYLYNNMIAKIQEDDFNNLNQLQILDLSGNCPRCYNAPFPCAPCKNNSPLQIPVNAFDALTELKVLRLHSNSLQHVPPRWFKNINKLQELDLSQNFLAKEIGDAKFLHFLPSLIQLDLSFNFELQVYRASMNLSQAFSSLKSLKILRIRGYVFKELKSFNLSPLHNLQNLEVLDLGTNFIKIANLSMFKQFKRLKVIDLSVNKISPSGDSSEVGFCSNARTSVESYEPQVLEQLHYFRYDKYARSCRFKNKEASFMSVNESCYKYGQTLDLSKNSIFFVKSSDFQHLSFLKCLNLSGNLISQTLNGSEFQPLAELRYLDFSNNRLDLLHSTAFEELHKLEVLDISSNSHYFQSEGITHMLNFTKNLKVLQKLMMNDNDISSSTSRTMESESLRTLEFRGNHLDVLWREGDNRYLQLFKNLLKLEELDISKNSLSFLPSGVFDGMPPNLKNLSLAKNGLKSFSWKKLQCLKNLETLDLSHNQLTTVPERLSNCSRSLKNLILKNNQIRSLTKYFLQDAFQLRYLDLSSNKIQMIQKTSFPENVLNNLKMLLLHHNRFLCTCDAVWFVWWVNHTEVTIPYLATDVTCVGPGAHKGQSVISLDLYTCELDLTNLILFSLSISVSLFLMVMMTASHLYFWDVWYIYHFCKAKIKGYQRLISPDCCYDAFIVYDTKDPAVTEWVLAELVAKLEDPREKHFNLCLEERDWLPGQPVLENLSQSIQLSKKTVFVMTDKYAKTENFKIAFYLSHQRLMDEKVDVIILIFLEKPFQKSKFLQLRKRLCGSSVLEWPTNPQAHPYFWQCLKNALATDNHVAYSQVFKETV
Outline: as §1

pIC50 (human TLR9) | pIC50 (human TLR8) | pIC50 (human TLR7) | SMILES
5.19 | 7.91 | 7.89 | CCc1c(-c2cn(C)c(=O)c(Cl)c2C)[nH]c2ccc(C3CCN(CC(=O)N(C)C)CC3)cc12 [Example 157, 2-(4-(2-(5-chloro-1,4-dimethyl-6-oxo-1,6-dihydropyridin-3-yl)-3-ethyl-1H-indol-5-yl)piperidin-1-yl)-N,N-dimethylacetamide]
5.03 | 8.25 | 8.30 | Cc1cc(-c2[nH]c3ccc(C4CCN(CC(C)C)CC4)cc3c2C(C)C)cn(C)c1=O [Example 75, 5-(5-(1-isobutylpiperidin-4-yl)-3-isopropyl-1H-indol-2-yl)-1,3-dimethylpyridin-2(1H)-one]
5.59 | 7.97 | 8.96 | CC(C)c1c(-c2cc(Cl)c(=O)n(C)c2)[nH]c2ccc(C3CCNCC3)cc12 [Example 22, 3-chloro-5-(3-isopropyl-5-(piperidin-4-yl)-1H-indol-2-yl)-1-methylpyridin-2(1H)-one]
5.57 | 8.02 | 8.20 | CCCN1CCC(c2ccc3[nH]c(-c4cc(-c5cnc(OC)nc5)c(=O)n(C)c4)c(C(C)C)c3c2)CC1 [Example 331, 5-(3-isopropyl-5-(1-propylpiperidin-4-yl)-1H-indol-2-yl)-3-(2-methoxypyrimidin-5-yl)-1-methylpyridin-2(1H)-one]
5.32 | 9.00 | 7.34 | Cc1c(-c2[nH]c3ccc(C4CCN(CC(C)(C)O)CC4)cc3c2C(C)C)cn(C)c(=O)c1C#N [Example 322, 5-(5-(1-(2-hydroxy-2-methylpropyl)piperidin-4-yl)-3-isopropyl-1H-indol-2-yl)-1,4-dimethyl-2-oxo-1,2-dihydropyridine-3-carbonitrile]
≤ 4.30 | 7.10 | 8.11 | Cc1cc(-c2[nH]c3ccc(C4CCN(C(=O)C(C)(C)CO)CC4)cc3c2C(C)C)cn(C)c1=O [Example 304, 5-(5-(1-(3-hydroxy-2,2-dimethylpropanoyl)piperidin-4-yl)-3-isopropyl-1H-indol-2-yl)-1,3-dimethylpyridin-2(1H)-one]
5.20 | 7.82 | 7.20 | Cc1c(-c2[nH]c3ccc(C4CCNCC4)cc3c2C(C)C)cc(C#N)c(=O)n1C [Example 23, 5-(3-isopropyl-5-(piperidin-4-yl)-1H-indol-2-yl)-1,6-dimethyl-2-oxo-1,2-dihydropyridine-3-carbonitrile]
5.59 | 8.34 | 8.68 | Cc1cc(-c2[nH]c3ccc(C4CCN(CCC(C)C)CC4)cc3c2C(C)C)cn(C)c1=O [Example 86, 5-(5-(1-isopentylpiperidin-4-yl)-3-isopropyl-1H-indol-2-yl)-1,3-dimethylpyridin-2(1H)-one]
≤ 4.30 | 7.95 | 8.01 | Cc1cc(-c2[nH]c3ccc(C4CCN(CC(=O)NCC(C)(C)O)CC4)cc3c2C(C)C)cn(C)c1=O [Example 124, 2-(4-(2-(1,5-dimethyl-6-oxo-1,6-dihydropyridin-3-yl)-3-isopropyl-1H-indol-5-yl)piperidin-1-yl)-N-(2-hydroxy-2-methylpropyl)acetamide]
≤ 4.30 | 7.77 | 7.46 | Cc1cc(-c2[nH]c3ccc(C4CCN(C5COC5)CC4)cc3c2C(C)C)c(C)n(C)c1=O [Example 211, 5-(3-isopropyl-5-(1-(oxetan-3-yl)piperidin-4-yl)-1H-indol-2-yl)-1,3,6-trimethylpyridin-2(1H)-one]
6.22 | 7.91 | 7.68 | Cc1c(-c2[nH]c3ccc(C4CCNCC4)cc3c2C(C)C)nn(C)c(=O)c1C [Example 17, 6-(3-isopropyl-5-(piperidin-4-yl)-1H-indol-2-yl)-2,4,5-trimethylpyridazin-3(2H)-one]
4.86 | 7.58 | 8.34 | Cc1c(-c2[nH]c3ccc(C4CCN(C(C)(C)C(N)=O)CC4)cc3c2C(C)C)cn(C)c(=O)c1Cl [Example 154, 2-(4-(2-(5-chloro-1,4-dimethyl-6-oxo-1,6-dihydropyridin-3-yl)-3-isopropyl-1H-indol-5-yl)piperidin-1-yl)-2-methylpropanamide]
5.24 | 8.10 | 7.86 | Cc1cc(-c2[nH]c3ccc(C4CCN(C(C)C)CC4)cc3c2C(C)C)c(C)n(C)c1=O [Example 214, 5-(3-isopropyl-5-(1-isopropylpiperidin-4-yl)-1H-indol-2-yl)-1,3,6-trimethylpyridin-2(1H)-one]
5.23 | 8.34 | 7.45 | Cc1cc(-c2[nH]c3ccc(C4CCN(C(C)c5cnn(C)c5)CC4)cc3c2C(C)C)cn(C)c1=O (stereo not drawn) [Example 269, 5-(3-isopropyl-5-(1-(1-(1-methyl-1H-pyrazol-4-yl)ethyl)piperidin-4-yl)-1H-indol-2-yl)-1,3-dimethylpyridin-2(1H)-one]
